Measurements from patent US9487528B2 (CHIESI FARMACEUTICI S.p.A., priority 2014, dated 2016).

Target: T1, human neutrophil elastase (HNE) (Homo sapiens, UniProt P08246)
T1 construct: purchased Sigma E8140
T1 sequence (P08246 30-267): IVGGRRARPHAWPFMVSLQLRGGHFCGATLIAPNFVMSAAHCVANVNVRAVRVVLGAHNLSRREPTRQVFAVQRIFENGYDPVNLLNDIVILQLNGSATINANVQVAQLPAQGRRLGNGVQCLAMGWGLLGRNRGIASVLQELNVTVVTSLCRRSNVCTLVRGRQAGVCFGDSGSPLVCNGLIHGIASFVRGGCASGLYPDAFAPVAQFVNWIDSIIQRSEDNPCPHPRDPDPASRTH
Test: HNE enzyme assay (human neutrophil elastase enzyme activity, fluorogenic peptide substrate)
Type: biochemical
Conditions: human leukocyte elastase 0.00072 U/mL; MeOSuc-Ala-Ala-Pro-Val-AMC 100 μM; 25° C., 30 minutes; at least two separate experiments; read-out: HNE inhibition (IC50 values)
Experimental: Compounds of this invention were tested for potency in a human neutrophil elastase (HNE) enzyme activity assay.
Assays were performed in 96-well plates in a total assay volume of 100 μL. The final concentration of elastase enzyme (human leukocyte elastase, Sigma E8140) was 0.00072 U/mL. The peptide substrate (MeOSuc-Ala-Ala-Pro-Val-AMC, Calbiochem #324740) was used at a final concentration of 100 μM. The final concentration of DMSO was 1% in the assay buffer (0.05M Tris.HCl, 0.1M NaCl, 0.1M CaCl2, 0.0005% brij-35, pH 7.5). The enzymatic reaction was started by addition of the enzyme and incubated at 25° C. for 30 minutes. After incubation, the reaction was stopped by addition of soybean trypsin inhibitor (Sigma T9003) at a final concentration of 50 μg/well. Fluorescence was measured using a Molecular Devices fluorescence plate reader using 380 nm excitation and 460 nm emission wavelengths.
A dose response to each compound was performed and the effect of the compound in each experiment was expressed as a percentage inhibition of the control enzyme fluorescence. Dose response curves were plotted and compound potency (IC50) was determined. Compounds were tested in at least two separate experiments.

Row | Compound | IC50
1 | CC1=C(C#N)[C@@H](c2ccc(C#N)cc2C(O)CO)n2c(n[nH]c2=O)N1c1cccc(C(F)F)c1 (mixture of isomers) [Example 39d, (R) and (S)-5-[4-Cyano-2-(1,2-dihydroxy-ethyl)-phenyl]-8-(3-difluoromethyl-phenyl)-7-methyl-3-oxo-2,3,5,8-tetrahydro-[1,2,4]triazolo[4,3-a]pyrimidine-6-carbonitrile] | 20 to 100 nM
2 | CC1=C(C#N)[C@@H](c2ccc(C#N)cc2CCO)n2c(n[nH]c2=O)N1c1cccc(C(F)F)c1 (single isomer, unassigned) [Example 38b] | 100 to 500 nM
3 | COCCOc1cc(C#N)ccc1[C@@H]1C(C(=O)OC)=C(C)N(c2cccc(C(F)(F)F)c2)c2n[nH]c(=O)n21 (single isomer, unassigned) [Example 34b] | 20 to 100 nM
4 | CC1=C(C#N)[C@@H](c2ccc(C#N)cc2C(O)CO)n2c(n[nH]c2=O)N1c1cccc(C(F)F)c1 (single isomer, unassigned) [Example 39a] | < 20 nM
5 | CC1=C(C#N)[C@@H](c2ccc(C#N)cc2C(O)CO)n2c(n[nH]c2=O)N1c1cccc(C(F)(F)F)c1 (single isomer, unassigned) [Example 35a] | < 20 nM
6 | COCCOc1cc(C#N)ccc1[C@@H]1C(C(=O)OC)=C(C)N(c2cccc(C(F)(F)F)c2)c2n[nH]c(=O)n21 (single isomer, unassigned) [Example 34a] | < 20 nM
7 | CC1=C(C#N)[C@@H](c2ccc(C#N)cc2CCS(C)(=O)=O)n2c(n[nH]c2=O)N1c1cccc(C(F)(F)F)c1 [Example 37, (R)-5-[4-Cyano-2-(2-methanesulfonyl-ethyl)-phenyl]-7-methyl-3-oxo-8-(3-trifluoromethyl-phenyl)-2,3,5,8-tetrahydro-[1,2,4]triazolo[4,3-a]pyrimidine-6-carbonitrile] | < 20 nM
8 | CC1=C(C#N)[C@@H](c2ccc(C#N)cc2CCO)n2c(n[nH]c2=O)N1c1cccc(C(F)(F)F)c1 [Example 36, (R)-5-[4-Cyano-2-(2-hydroxy-ethyl)-phenyl]-7-methyl-3-oxo-8-(3-trifluoromethyl-phenyl)-2,3,5,8-tetrahydro-[1,2,4]triazolo[4,3-a]pyrimidine-6-carbonitrile] | < 20 nM
9 | CC1=C(C#N)C(c2ccc(C#N)cc2C(O)CO)n2c(n[nH]c2=O)N1c1cccc(C(F)F)c1 (single isomer, unassigned) [Example 39b] | 100 to 500 nM
10 | CC1=C(C#N)[C@@H](c2ccc(C#N)cc2CCO)n2c(n[nH]c2=O)N1c1cccc(C(F)F)c1 (single isomer, unassigned) [Example 38a] | < 20 nM
11 | COC(=O)C1=C(C)N(c2cccc(C(F)(F)F)c2)c2n[nH]c(=O)n2[C@H]1c1ccc(C#N)cc1OC (racemic) [Example 33b] | 20 to 100 nM
